Read-outs that look alike come from different tables or passages of the source.
Tested on: IL-1β production in PMA-differentiated THP-1 cells
Experiment: IL-1β production in PMA-differentiated THP-1 cells stimulated with gramicidin (hTHP-1 assay containing 2% fetal bovine serum; Procedures 1-3)
Type: cell-based, human
Settings: Homo sapiens, THP-1, hTHP-1 assay containing 2% fetal bovine serum, read-out: hTHP-1 IC50 (Average IC50 of compounds in hTHP-1 assay)
Procedure, shortened: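 THP-1 cells differentiated with PMA (20 ng/ml, 16-18 h), replated in 2% FBS RPMI (50,000 cells/well), preincubated 1 h with compound (top final 100 μM, 3-fold steps, 0.37% DMSO), then stimulated 2 h with gramicidin (5 μM). Supernatant IL-1β measured by HTRF.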

CNS(=O)(=NC(=O)Cc1c2c(cc3c1CCC3)CCC2)c1ncc(C(C)(C)O)s1 (centres unmarked) [Example 12, 2-(1,2,3,5,6,7-Hexahydro-s-indacen-4-yl)-N-(5-(2-hydroxypropan-2-yl)-N-methylthiazole-2-sulfonimidoyl)acetamide]
IC50 (given as numeric bound): > 30000 nM

CC(C)c1cc(C#N)c(F)c(C(C)C)c1CC(=O)N=S(N)(=O)c1sc(C(C)(C)O)cc1F (centres unmarked) [Example 14, 2-(4-cyano-3-fluoro-2,6-diisopropylphenyl)-N-(3-fluoro-5-(2-hydroxypropan-2-yl)thiophen-2-ylsulfonimidoyl)acetamide]
IC50 (class symbols): 8 to 40 nM

CC(C)c1cc(F)cc(C2CC2)c1CC(=O)N=S(N)(=O)c1ccc(CN(C)C)cc1 (centres unmarked) [Example 15, 2-(2-cyclopropyl-4-fluoro-6-isopropylphenyl)-N-(4-((dimethylamino)methyl)phenyl-sulfonimidoyl)acetamide]
IC50 (class symbols): 1000 to 5000 nM

CC(C)c1cc(OC(F)F)cc(C(C)C)c1CC(=O)N=S(N)(=O)c1cnc(C(C)(C)O)s1 (centres unmarked) [Example 16, 2-(4-(difluoromethoxy)-2,6-diisopropylphenyl)-N-(2-(2-hydroxypropan-2-yl)thiazol-5-ylsulfonimidoyl)acetamide]
IC50 (class symbols): 200 to 1000 nM

CC(C)c1cc(F)cc(C(C)C)c1CC(=O)N=S(N)(=O)c1sc(C(C)(C)O)cc1F (centres unmarked) [Example 17, 2-(4-fluoro-2,6-diisopropylphenyl)-N-(3-fluoro-5-(2-hydroxypropan-2-yl)thiophen-2-ylsulfonimidoyl)acetamide]
IC50 (class symbols): 8 to 40 nM

CC(C)c1cc(F)cc(C2CC2)c1CC(=O)N=S(N)(=O)c1sc(C(C)(C)O)cc1F (centres unmarked) [Example 18, 2-(2-cyclopropyl-4-fluoro-6-isopropylphenyl)-N-(3-fluoro-5-(2-hydroxypropan-2-yl)thiophen-2-ylsulfonimidoyl)acetamide]
IC50 (class symbols): 40 to 200 nM

CC(C)c1c(F)c(C#N)cc(C2CC2)c1CC(=O)N=S(N)(=O)c1sc(C(C)(C)O)cc1F (centres unmarked) [Example 19, 2-(4-cyano-6-cyclopropyl-3-fluoro-2-isopropylphenyl)-N-(3-fluoro-5-(2-hydroxypropan-2-yl)thiophen-2-ylsulfonimidoyl)acetamide]
IC50 (class symbols): 8 to 40 nM

CC(C)c1cc(Cl)c(F)c(C2CC2)c1CC(=O)N=S(N)(=O)c1sc(C(C)(C)O)cc1F (centres unmarked) [Example 20, 2-(4-chloro-2-cyclopropyl-3-fluoro-6-isopropylphenyl)-N-(3-fluoro-5-(2-hydroxypropan-2-yl)thiophen-2-ylsulfonimidoyl)acetamide]
IC50 (class symbols): 200 to 1000 nM

CC(C)c1cc(OC(F)F)cc(C(C)C)c1CC(=O)N=S(N)(=O)c1sc(C(C)(C)O)cc1F (centres unmarked) [Example 21, 2-(4-(difluoromethoxy)-2,6-diisopropylphenyl)-N-(3-fluoro-5-(2-hydroxypropan-2-yl)thiophen-2-ylsulfonimidoyl)acetamide]
IC50 (class symbols): 40 to 200 nM

CC(C)c1cc(C#N)cc(C(C)C)c1CC(=O)N=S(N)(=O)c1sc(C(C)(C)O)nc1CO (centres unmarked) [Example 22, 2-(4-cyano-2,6-diisopropylphenyl)-N-(4-(hydroxymethyl)-2-(2-hydroxypropan-2-yl)thiazol-5-ylsulfonimidoyl)acetamide]
IC50 (class symbols): 200 to 1000 nM

CC(C)(O)c1nc(CO)c(S(N)(=O)=NC(=O)Cc2c3c(cc4c2CCC4)CCC3)s1 (centres unmarked) [Example 23, 2-(1,2,3,5,6,7-hexahydros-indacen-4-yl)-N-(4-(hydroxymethyl)-2-(2-hydroxypropan-2-yl)thiazol-5-ylsulfonimidoyl)acetamide]
IC50 (class symbols): 1000 to 5000 nM

COCc1cc(C(C)C)c(CC(=O)N=S(N)(=O)c2sc(C(C)(C)O)nc2CO)c(C(C)C)c1 (centres unmarked) [Example 24, 2-(2,6-diisopropyl-4-(methoxymethyl)phenyl)-N-(4-(hydroxymethyl)-2-(2-hydroxypropan-2-yl)thiazole-5-sulfonimidoyl)acetamide]
IC50 (class symbols): 200 to 1000 nM

CC(C)c1cc(C#N)cc(C2CC2)c1CC(=O)N=S(N)(=O)c1sc(C(C)(C)O)nc1CO (centres unmarked) [Example 25, 2-(4-cyano-2-cyclopropyl-6-isopropylphenyl)-N-(4-(hydroxymethyl)-2-(2-hydroxypropan-2-yl)thiazole-5-sulfonimidoyl)acetamide]
IC50 (class symbols): 1000 to 5000 nM

Cc1cc(CN(C)C)ccc1S(N)(=O)=NC(=O)Cc1c(C(C)C)cc(OC(F)F)cc1C1CC1 (centres unmarked) [Example 26, 2-(2-cyclopropyl-4-(difluoromethoxy)-6-isopropylphenyl)-N-(4-((dimethylamino)methyl)-2-methylphenylsulfonimidoyl) acetamide]
IC50 (class symbols): 1000 to 5000 nM

CC(C)c1cc(OC(F)F)cc(C(C)C)c1CC(=O)N=S(N)(=O)c1ccc(CN(C)C)cc1 (centres unmarked) [Example 27, 2-(4-(difluoromethoxy)-2,6-diisopropylphenyl)-N-(4-((dimethylamino)methyl)phenyl-sulfonimidoyl)acetamide]
IC50 (class symbols): 1000 to 5000 nM

CC(C)c1cc(C#N)cc(C(C)C)c1CC(=O)N=S(N)(=O)c1ccc(CN(C)C)cc1 (centres unmarked) [Example 28, 2-(4-cyano-2,6-diisopropylphenyl)-N-(4-((dimethylamino)methyl)phenyl-sulfonimidoyl)acetamide]
IC50 (class symbols): 1000 to 5000 nM

CC(C)c1cc(C#N)cc(C2CC2)c1CC(=O)N=S(N)(=O)c1ccc(CN(C)C)cc1 (centres unmarked) [Example 29, 2-(4-cyano-2-cyclopropyl-6-isopropylphenyl)-N-(4-((dimethylamino)methyl)phenyl-sulfonimidoyl)acetamide]
IC50 (class symbols): 5000 to 30000 nM

CCc1cc(C#N)cc(C(C)C)c1CC(=O)N=S(N)(=O)c1ccc(CN(C)C)cc1 (centres unmarked) [Example 30, 2-(4-cyano-2-ethyl-6-isopropylphenyl)-N-(4-((dimethylamino)methyl)phenyl-sulfonimidoyl)acetamide]
IC50 (class symbols): 5000 to 30000 nM

CC(C)c1cc(F)cc(C2CC2)c1CC(=O)N=S(N)(=O)c1ccc(CN(C)C)cc1F (centres unmarked) [Example 31, 2-(2-cyclopropyl-4-fluoro-6-isopropylphenyl)-N-(4-((dimethylamino)methyl)-2-fluorophenylsulfonimidoyl) acetamide]
IC50 (class symbols): 1000 to 5000 nM

CC(C)c1cc(C#N)cc(C2CC2)c1CC(=O)N=S(N)(=O)c1ccc(CN(C)C)cc1F (centres unmarked) [Example 32, 2-(4-cyano-2-cyclopropyl-6-isopropylphenyl)-N-(4-((dimethylamino)methyl)-2-fluorophenylsulfonimidoyl) acetamide]
IC50 (class symbols): 5000 to 30000 nM

CC(C)c1cc(C(F)F)cc(C(C)C)c1CC(=O)N=S(N)(=O)c1ccc(C(C)(C)O)cc1F (centres unmarked) [Example 33, 2-(4-(difluoromethyl)-2,6-diisopropylphenyl)-N-(2-fluoro-4-(2-hydroxypropan-2-yl)phenylsulfonimidoyl)acetamide]
IC50 (class symbols): 200 to 1000 nM

CC(C)c1cc(C#N)cc(C(C)C)c1CC(=O)N=S(N)(=O)c1ccc(C(C)(C)O)cc1Cl (centres unmarked) [Example 34, N-(2-chloro-4-(2-hydroxypropan-2-yl)phenylsulfonimidoyl)-2-(4-cyano-2,6-diisopropylphenyl)acetamide]
IC50 (class symbols): 1000 to 5000 nM

CC(C)c1cc(C(F)F)cc(C(C)C)c1CC(=O)N=S(N)(=O)c1ccc(CN(C)C)cc1F (centres unmarked) [Example 35, 2-(4-(difluoromethyl)-2,6-diisopropylphenyl)-N-(4-((dimethylamino)methyl)-2-fluorophenylsulfonimidoyl) acetamide]
IC50 (class symbols): 200 to 1000 nM

CCc1cc(OC(F)F)cc(C(C)C)c1CC(=O)N=S(N)(=O)c1sc(C(C)(C)O)cc1F (centres unmarked) [Example 36, 2-(4-(difluoromethoxy)-2-ethyl-6-isopropylphenyl)-N-(3-fluoro-5-(2-hydroxypropan-2-yl)thiophene-2-sulfonimidoyl)acetamide]
IC50 (class symbols): 200 to 1000 nM

CC(C)c1cc(C(F)F)cc(C(C)C)c1CC(=O)N=S(N)(=O)c1sc(C(C)(C)O)cc1F (centres unmarked) [Example 37, 2-(4-(difluoromethyl)-2,6-diisopropylphenyl)-N-(3-fluoro-5-(2-hydroxypropan-2-yl)thiophene-2-sulfonimidoyl)acetamide]
IC50 (class symbols): 40 to 200 nM

CC(C)c1cc(C#N)cc(C(C)C)c1CC(=O)N=S(N)(=O)c1ncc(C(C)(C)O)s1 (centres unmarked) [Example 38, 2-(4-cyano-2,6-diisopropylphenyl)-N-(5-(2-hydroxypropan-2-yl)thiazole-2-sulfonimidoyl)acetamide]
IC50 (class symbols): 200 to 1000 nM

Cc1nc(C(C)(C)O)sc1S(N)(=O)=NC(=O)Cc1c(C(C)C)cc(OC(F)F)cc1C(C)C (centres unmarked) [Example 39, 2-(4-(difluoromethoxy)-2,6-diisopropylphenyl)-N-(2-(2-hydroxypropan-2-yl)-4-methylthiazole-5-sulfonimidoyl)acetamide]
IC50 (class symbols): 200 to 1000 nM

Cc1nc(C(C)(C)O)sc1S(N)(=O)=NC(=O)Cc1c(C(C)C)cc(C#N)cc1C(C)C (centres unmarked) [Example 40, 2-(4-cyano-2,6-diisopropylphenyl)-N-(2-(2-hydroxypropan-2-yl)-4-methylthiazole-5-sulfonimidoyl)acetamide]
IC50 (class symbols): 200 to 1000 nM

CC(C)c1ccc(F)c(C(C)C)c1CC(=O)N=S(N)(=O)c1ccc2c(cnn2C)c1 (centres unmarked) [Example 90, N-(amino(1-methyl-1H-indazol-5-yl)(oxo)-λ^6-sulfaneylidene)-2-(3-fluoro-2,6-diisopropylphenyl)acetamide]
IC50 (class symbols): 5000 to 30000 nM

CC(C)c1ccc(F)c(C(C)C)c1CC(=O)N=S(N)(=O)c1ccc(CN(C)C)cn1 (centres unmarked) [Example 91, N-(amino(5-((dimethylamino)methyl)pyridin-2-yl)(oxo)-λ^6-sulfaneylidene)-2-(3-fluoro-2,6-diisopropylphenyl)acetamide]
IC50 (class symbols): 5000 to 30000 nM

CC(C)c1cncc(C(C)C)c1CC(=O)NS(=O)(=O)c1sc(C(C)(C)O)nc1CO [Example 92, 2-(3,5-diisopropylpyridin-4-yl)-N-((4-(hydroxymethyl)-2-(2-hydroxypropan-2-yl)thiazol-5-yl)sulfonyl)acetamide]
IC50 (given as numeric bound): > 30000 nM

CC(C)c1cc(C2(O)COC2)cc(C(C)C)c1CC(=O)N=S(N)(=O)c1ncc(C(C)(C)O)s1 (centres unmarked) [Example 93, N-(amino(5-(2-hydroxypropan-2-yl)thiazol-2-yl)(oxo)-λ^6-sulfaneylidene)-2-(4-(3-hydroxyoxetan-3-yl)-2,6-diisopropylphenyl)acetamide]
IC50 (given as numeric bound): > 30000 nM
